Measurements as given in paper PMC5503984, “Characterisation of preproendothelin-1 derived peptides identifies Endothelin-Like Domain Peptide as a modulator of Endothelin-1” (Scientific Reports, 2017).

Columns and labels:
[1] = RP-HPLC elution position of synthetic proET-1 peptides; format: physicochemical; settings: ACE-5 C4 300 Å, 5 µm, 4.6 × 250 mm, 1 ml/min, 0.1% TFA – 10% solvent B (80% CH3CN with 0.1% TFA) over 2 min, then 10–30% B over 50 min, 1 min fractions, absorbance at 280 nm and immunoassay
Protocol: Figure 2 Size exclusion chromatography of peptide precipitates from (A) EA.hy 926 and (B) A549 cell lines, (C) cation exchange chromatography of conditioned media from EA.hy 926, and HPLC characterisation of pro-ET-1 peptides from EA.hy 926 cells – (D) NT-proET-1, (E) ELDP and (F) CT-proET-1. (A) and (B) proendothelin-1 peptides from EA.hy 926 and A549 cell lines were subjected to size exclusion chromatography (column 1.6 × 100 cm, Sephadex G50 superfine) equilibrated at 4 °C with 0.1 M NaCl containing 0.01 M HCl. Fractions were subjected to immunoassay for ppET-1[42–50] (open circles) and ppET-1[93–102] (closed circles). Elution positions of adrenomedullin (ADM, M r 6029), big ET-1 (bET-1, M r 4283) and ET-1 (M r 2492) are indicated. […] ELDP (red columns) and CT-proET-1 (blue columns) were measured using immunoassays. […]
ProET-1 peptides were subjected to reverse phase HPLC on C4 silica (15 µm, 300 Å pore, 1 × 25 cm; Jupiter® Phenomenex) with gradient elution at 2 ml/min: 0.1% TFA – 15% solvent B (80% CH3CN with 0.1% TFA) over 2 min, followed by 15–60% B over 45 min. […] Synthetic peptides were used to characterise elution positions of NT-proET-1, ELDP and CT-proET-1 on this second HPLC system by monitoring absorbance at 280 nm and immunoassay of fractions. […]

orphan GPCRs = test: PathHunter Orphan GPCR biosensor panel (ß-arrestin binding, ß-galactosidase complementation); format: cell-based; settings: 0.1 µM ELDP, 90 min at room temperature, duplicate, 5000 cells per well; chemiluminescence; no response above three standard deviations of control
From the text: An important component of ET-1-induced vasoconstriction is Ca^2+ influx through voltage-gated L-type Ca^2+ channels, [67]. Modulation of ET-1 responses by ELDP therefore likely involves facilitation of Ca^2+ influx. Responses to norepinephrine and serotonin are also augmented by ET-1, and this has been attributed to increased Ca^2+ influx[68]–[70]. To investigate whether ELDP mediates its effects via a distinct G-protein coupled receptor (GPCR), whose ligand pairing had yet to be assigned, ELDP was evaluated against a panel of cell-expressed orphan GPCRs using a detection system based on ß-arrestin binding (Supplementary Figure S3). […]
arrestin and to the GPCR complementing each other to reconstitute ß-galactosidase activity, which is then measured by chemiluminescence ß-galactosidase assay as an index of receptor binding (1,2).
Orphan GPCR screening for ELDP was undertaken by DiscoverRx Corporation, Fremont, CA 94538, USA. […] At the end of the incubation period chemiluminescent substrate was add, and incubated for 60 min before measurement of relative luminescence (RLU) using a PerkinElmer […]
Data Analysis: Percentage activity was calculated for each test well relative to the mean RLU of the corresponding vehicle-treated GPCR. Results are expressed as mean control (%) ± coefficient of […]

elution position on RP-HPLC (fraction number) [1]: 45 fraction
Sequence: ALENLLPTKATDRENRCQCASQKDKKCWNFCQAGKELRAEDIMEKDWNNHKKGKDCSKLGKKCIYQQLVRGRKI (disulfide (positions not given here)) [ELDP]
receptor – ligand pairing in orphan GPCR screen (orphan GPCRs): failed to identify an ELDP receptor – ligand pair
